Reference: article PMC7136958, “Targeting the pregnane X receptor using microbial metabolite mimicry” (EMBO Molecular Medicine, 2020)

Experiments:
PXR = molecular target: T1, PXR (Homo sapiens, UniProt O75469); experiment: PXR reporter (p3A4-luc luciferase) assay in LS180 cells transiently transfected with wild-type PXR; conditions: for FOLD INDUCTION of PXR reporter luciferase activity: 24 h, over UT
T1 sequence (O75469 1-434): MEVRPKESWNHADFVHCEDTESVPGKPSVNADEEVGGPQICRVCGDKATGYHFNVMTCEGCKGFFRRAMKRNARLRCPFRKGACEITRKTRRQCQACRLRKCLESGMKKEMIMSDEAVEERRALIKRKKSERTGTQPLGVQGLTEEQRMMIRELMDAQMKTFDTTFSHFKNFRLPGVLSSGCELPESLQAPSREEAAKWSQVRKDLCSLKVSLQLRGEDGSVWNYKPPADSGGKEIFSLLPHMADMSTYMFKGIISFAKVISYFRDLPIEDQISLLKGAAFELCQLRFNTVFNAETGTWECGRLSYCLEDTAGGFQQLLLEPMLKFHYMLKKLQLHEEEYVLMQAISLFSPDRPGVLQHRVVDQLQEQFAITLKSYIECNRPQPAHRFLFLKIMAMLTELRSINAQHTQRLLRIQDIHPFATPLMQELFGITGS
Experimental: Incubations were performed in four technical replicates. After the treatments, cells were lysed and luciferase activity was measured on Tecan Infinite M200 Pro plate reader (Schoeller Instruments, Prague, Czech Republic). The data are expressed as fold induction ± SD of luciferase activity over the control cells (agonistic mode—in the absence of a model ligand) or as a percentage of maximal activation ± SD (antagonistic mode—in the presence of a model ligand). […] For all the transfection experiments, specifically multiplexed transfections, the control wells were mock‐transfected ([…]). However, to exclude non‐specific binding of PXR (or other factors) upstream of the luciferase gene within non‐PXR‐binding elements, we performed pilot experiments in different cell passages (P11, P14, and P17) of LS174T cells using a mock luciferase plasmid (luciferase not containing an upstream PXR‐binding element of the CYP3A4 promoter).

AhR = molecular target: T2, AhR (Homo sapiens, UniProt P35869); experiment: AhR reporter assay, HepG2 cells stably expressing pCYP1A1 luciferase (AZ-AHR); assay type: cell-based
T2 construct: endogenous in cells; host or cells: AZ-AHR (HepG2)
T2 sequence (P35869 11-848): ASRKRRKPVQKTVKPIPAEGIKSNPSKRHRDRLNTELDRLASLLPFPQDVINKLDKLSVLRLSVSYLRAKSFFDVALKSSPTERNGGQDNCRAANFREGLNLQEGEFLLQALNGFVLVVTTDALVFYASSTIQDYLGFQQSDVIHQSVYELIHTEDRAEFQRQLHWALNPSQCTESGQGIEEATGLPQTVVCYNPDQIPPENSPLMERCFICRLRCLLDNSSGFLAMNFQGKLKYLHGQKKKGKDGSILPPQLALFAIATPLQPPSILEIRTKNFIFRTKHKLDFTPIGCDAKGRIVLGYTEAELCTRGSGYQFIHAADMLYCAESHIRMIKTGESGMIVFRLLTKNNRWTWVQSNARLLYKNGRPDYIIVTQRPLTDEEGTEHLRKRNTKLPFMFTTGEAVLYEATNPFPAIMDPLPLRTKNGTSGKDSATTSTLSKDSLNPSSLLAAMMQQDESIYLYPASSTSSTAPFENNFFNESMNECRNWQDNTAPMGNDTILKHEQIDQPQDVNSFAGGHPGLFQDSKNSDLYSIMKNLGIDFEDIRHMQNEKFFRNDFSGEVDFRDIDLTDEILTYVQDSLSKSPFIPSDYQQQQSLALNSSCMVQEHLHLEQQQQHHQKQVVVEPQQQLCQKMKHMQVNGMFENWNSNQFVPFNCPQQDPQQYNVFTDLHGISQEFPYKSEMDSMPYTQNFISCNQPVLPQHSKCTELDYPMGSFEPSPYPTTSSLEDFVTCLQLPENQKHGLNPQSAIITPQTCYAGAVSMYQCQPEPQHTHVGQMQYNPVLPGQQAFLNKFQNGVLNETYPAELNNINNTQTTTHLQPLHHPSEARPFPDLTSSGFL
Experimental: Incubations were performed in four technical replicates.

[1] = AZ-AHR cells, 1 nM, fold vs DMSO
[2] = AZ-AHR cells, 10 nM, fold vs DMSO
[3] = AZ-AHR cells, 100 nM, fold vs DMSO
[4] = AZ-AHR cells, 1µM, fold vs DMSO
[5] = AZ-AHR cells, 10 µM, fold vs DMSO
[6] = LS180, read-out: FOLD INDUCTION of PXR reporter luciferase activity

Compound	aver (mean luciferase signal of H1-H4) (PXR; 1 nM)	FOLD INDUCTION of PXR reporter luciferase activity (PXR; 1 nM) [fold]	aver (mean luciferase signal of H1-H4) (PXR; 10 nM)	FOLD INDUCTION of PXR reporter luciferase activity (PXR; 10 nM) [fold]	aver (mean luciferase signal of H1-H4) (PXR; 100 nM)	FOLD INDUCTION of PXR reporter luciferase activity (PXR; 100 nM) [fold]	aver (mean luciferase signal of H1-H4) (PXR; 1 uM)	FOLD INDUCTION of PXR reporter luciferase activity (PXR; 1 uM) [fold]	aver (mean luciferase signal of H1-H4) (PXR; 10 uM)	FOLD INDUCTION of PXR reporter luciferase activity (PXR; 10 uM) [fold]	aver (mean luciferase signal of H1-H4) (PXR; 25 uM)	FOLD INDUCTION of PXR reporter luciferase activity (PXR; 25 uM) [fold]	AhR activation (in words) (AhR)	FOLD INDUCTION (AZ-AHR luciferase) (AhR; [1]) [fold]	FOLD INDUCTION (AZ-AHR luciferase) (AhR; [2]) [fold]	FOLD INDUCTION (AZ-AHR luciferase) (AhR; [3]) [fold]	FOLD INDUCTION (AZ-AHR luciferase) (AhR; [4]) [fold]	FOLD INDUCTION (AZ-AHR luciferase) (AhR; [5]) [fold]	further results
OC(Cc1cc2ccccc2[nH]1)(c1ccncc1)c1cc2ccccc2[nH]1 (stereo not drawn) [FKK10]	4648.0	1.3	3990.3	1.1	4278.0	1.2	3689.5	1.1	16756.3	4.8	52110.3	15.0	variable degrees of dose‐dependent AhR activation profiles	0.5	0.318	0.8	1.3	21.9	–
CC#CC(O)(c1ccncc1)c1cc2ccccc2n1S(=O)(=O)c1ccccc1 (racemic) [FKK3]	5303.8	2.5	3556.8	1.7	7075.5	3.3	50228.8	23.5	65270.5	30.5	57813.0	27.0	variable degrees of dose‐dependent AhR activation profiles	0.8	0.7	0.9	1.1	5.3	–
O=S(=O)(c1ccccc1)n1c(C(O)(Cc2cc3ccccc3[nH]2)c2ccncc2)cc2ccccc21 (racemic) [FKK7]	4342.5	1.1	4393.8	1.2	6280.8	1.7	60156.8	15.8	84023.3	22.1	80527.0	21.2	variable degrees of dose‐dependent AhR activation profiles	0.746	0.738	0.7	3.6	75.5	–
OC(c1ccncc1)(c1cc2ccccc2[nH]1)c1cc2ccccc2[nH]1 [FKK2]	2792.0	1.3	2989.5	1.4	3008.8	1.4	7365.5	3.4	41425.5	19.4	32321.0	15.1	–	0.9	0.9	2.1	15.0	467.5	AhR activation (AhR; 10 μM): > 100 fold
O=S(=O)(c1ccccc1)n1c(C(O)Cc2cc3ccccc3[nH]2)cc2ccccc21 (racemic) [FKK8]	3847.5	1.0	4121.3	1.1	8608.8	2.3	58017.5	15.3	99864.5	26.3	75044.8	19.7	variable degrees of dose‐dependent AhR activation profiles	0.6	0.7	1.1	2.3	40.8	–
Cc1[nH]c2ccccc2c1C(c1c(C)[nH]c2ccccc12)c1c(C)[nH]c2ccccc12 [FKK999, reference compound]	2509.3	–	3525.3	–	5905.5	–	26021.5	–	42646.5	–	44375.0	–	variable degrees of dose‐dependent AhR activation profiles	–	–	–	–	–	aver (mean luciferase signal of H1-H4) (PXR; 50 uM): 44986.8; fold induction at 0.001 µM (PXR; [6]): 1.39; fold induction at 0.01 µM (PXR; [6]): 1.95; fold induction at 0.1 µM (PXR; [6]): 3.27; fold induction at 1 µM (PXR; [6]): 14.4; fold induction at 10 µM (PXR; [6]): 23.6; fold induction at 25 µM (PXR; [6]): 24.5; fold induction at 50 µM (PXR; [6]): 24.9; PXR activation (in words) (PXR; cell-based transactivation): activated PXR; fold induction at 24 h, 0.001 µM (AhR; human, AZ-AHR cells, 1 nM, fold vs DMSO): 1; fold induction at 24 h, 0.01 µM (AhR; human, AZ-AHR cells, 10 nM, fold vs DMSO): 1; fold induction at 24 h, 0.1 µM (AhR; human, AZ-AHR cells, 100 nM, fold vs DMSO): 3.5; fold induction at 24 h, 1 µM (AhR; human, AZ-AHR cells, 1µM, fold vs DMSO): 10.2; fold induction at 24 h, 10 µM (AhR; human, AZ-AHR cells, 10 µM, fold vs DMSO): 28.2
